From patent EP1123387B1, “MN GENE AND PROTEIN” (INSTITUTE OF VIROLOGY, priority 1998, dated 2000)
Read-outs that look alike come from different tables or passages of the source. Where a SMILES comes first, the peptide text is derived from it.

Assays:
[1] = system: Rat2TK- cells and C33 human cervical carcinoma cells transfected with pMN-HSVtk
[2] = target: T1, epitope of immobilized GST-MN (Homo sapiens, UniProt Q16790); assay: Competition ELISA (peptides binding to the epitope of immobilized GST-MN); conditions: nonapeptides of 7 + 2 aa
T1 construct: expressed from pGEX-3X-MN containing the cDNA for the MN protein without the signal peptide; made in house; host or cells: bacteria (E. coli XL1-Blue)
Procedure: (§1) ELISA. Purified GST-MN [Zavada et al. (1993), supra] at concentration 10 ng /ml in carbonate buffer pH 9.2 was adsorbed for 3 h in Maxisorb strips (NUNC). After washing and blocking (1 h) with 0.05% Tween 20 in PBS, 50µl/well of the antibody + antigen mixtures were added. […] These mixtures were adsorbed for 1.5 h, followed by washing with Tween-PBS. Bound antibody was detected by antimouse lgG conjugate with peroxidase (SwAM-Px, SEVAC, Prague), diluted 1:1000. In the color reaction OPD (o-phenylenediamine dihydrochloride, Sigma) 1 mg/ml in 0.1 M citrate buffer pH 5.0 was used. To this H2O2 was added to final concentration 0.03%. This system is balanced so as to allow assay for antigen competing for M75 as well as for peptides binding to the epitope of immobilized GST-MN.
MN/CA IX. As an alternative to monoclonal antibodies, we set out to select oligopeptides exerting affinity to M75 epitope as well as to MN/CA IX receptor binding site from a phage display library of random heptapeptides - Ph.D.-7. Our aim was to select phages containing the desired heptapeptides by panning on immobilized peptide SEQ ID NO: 106 and subsequent elution with M75. Eluted phage was multiplied in appropriate bacteria and subjected to 4 more cycles of panning and elution. From the selected phage population, 10 plaques were picked, amplified and the heptapeptide-coding region was sequenced. Only 3 heptapeptides were represented. Those three heptapeptides, after adding alanine on both sides, are the following nonapeptides: […] [SEQ ID NO: 137]; […] [SEQ ID NO: 138]; and […] [SEQ ID NO: 139]. The last heptapeptide, synthesized again with added terminal alanines as nonapeptide […] [SEQ ID NO: 140], was identified by panning on GST-MN and eluted with acetazolamide. This last peptide has affinity to the active site of MN/CA IX carbonic anhydrase. We synthesized these peptides of 7 + 2 aa and tested them in competition ELISA and in cell adhesion inhibition. […] In all of those 4 nonapeptides, the C-terminal […] as amide.

MN/CA IX = MN/CA IX (Homo sapiens, UniProt Q16790); assay: Cell adhesion assay of Example 2 (inhibition of cell attachment to MN/CA IX dots); type: cell-based; conditions: nonapeptides of 7 + 2 aa
[3] = Tolerance of cell cultures to acetazolamide; type: cell-based, human; conditions: human, hela cells; confluent cultures, 3 days; read-out: concentration tolerated without any signs of toxicity and without any effect on cell morphology
HeLa = assay: Tolerance of cell cultures to acetazolamide; type: cell-based, human; conditions: sparse cultures
[4] = Tolerance of cell cultures to acetazolamide; type: cell-based, mouse; conditions: mouse, nih3t3 cells; confluent cultures, 3 days; read-out: concentration tolerated without any signs of toxicity and without any effect on cell morphology
NIH3T3 cells = assay: Tolerance of cell cultures to acetazolamide; type: cell-based, mouse; conditions: sparse cultures
[5] = system: NIH3T3 cells freshly transformed with the [pGD.MN + MLV] complex; assay: Effect on morphologic transformation by MN; type: cell-based, mouse; conditions: 10^-5M, 4 days of incubation
Procedure: Thus, 10^-5M acetazolamide was added to NIH3T3 cells freshly transformed with the [pGD.MN + MLV] complex. After 4 days of incubation, the colonies were fixed and stained. No difference was seen between cells growing in the presence or absence of acetazolamide; both were indistinguishable from correctly transformed NIH3T3 cells. Thus, the enzymatic activity of carbonic anhydrase is not relevant for the transforming activity of MN protein.

MAb M75 = assay: Competition ELISA with M75 (antigen competing for M75); type: binding, mouse; conditions: for concentration causing 50% inhibition: GST-MN adsorbed, MAb 75 ascites fluid 10^-6; for reactive with the M75 MAb: test not given
Procedure: as §1
Identification of the epitope recognized by Mab M75. Preliminary mapping of M75 epitope employing partial sequences of extracellular parts of MN/CA9 cDNA expressed from bacterial vectors and tested on Western blots located it in PG region. For exact mapping, our strategy was to synthesize partially overlapping oligopeptides of 15-25 aa covering the PG domain and test them in competition ELISA with M75. According to the results, this was followed by a series of 6-12 aa oligopeptides. A major part of the PG domain consists of a 6-fold tandem repeat of 6 aa (aa 61 - 96) [SEQ ID NO: 97]; 4 repeats are identical (GEEDLP) [SEQ ID NO: 98] and 2 contain 2 aa exchanged (SEEDSP [SEQ ID NO: 141] and REEDPP [SEQ ID NO: 142]).

| Compound | activity in competition ELISA [2] | activity in cell adhesion inhibition (MN/CA IX) | reactive with the M75 MAb (MAb M75) | other results |
| --- | --- | --- | --- | --- |
| Nc1nc(O)c2ncn(COC(CO)CO)c2n1 [GVC, ganciclovir] |  |  |  | cells killed [1]: up to 95% |
| CSCC[C@H](NC(=O)[C@H](CCCCN)NC(=O)[C@H](CCCCN)NC(=O)[C@H](C)N)C(=O)N[C@@H](CCCCN)C(=O)N[C@@H](CCCNC(=N)N)C(=O)N[C@@H](CCCNC(=N)N)C(=O)N[C@@H](CCCCN)C(=O)N[C@@H](C)C(N)=O [SEQ ID NO: 137] (H-AKKMKRRKA-NH2) | less active | less active |  |  |
| CC[C@H](C)[C@H](NC(=O)[C@H](C)N)C(=O)N[C@H](C(=O)N[C@@H](Cc1ccccc1)C(=O)N[C@@H](CC(N)=O)C(=O)N[C@@H](C)C(=O)N[C@@H](CCC(N)=O)C(=O)N[C@@H](Cc1ccc(O)cc1)C(=O)N[C@@H](C)C(N)=O)[C@@H](C)O [SEQ ID NO: 138] (H-AITFNAQYA-NH2) | highest activity | highest activity |  |  |
| CC(C)[C@H](NC(=O)[C@@H]1CCCN1C(=O)[C@H](C)NC(=O)[C@H](CO)NC(=O)[C@H](C)NC(=O)[C@H](CO)NC(=O)[C@H](C)N)C(=O)N[C@@H](CO)C(=O)N[C@@H](C)C(N)=O [SEQ ID NO: 139] (H-ASASAPVSA-NH2) | marginally positive | marginally positive only in ELISA |  |  |
| CC(C)C[C@H](NC(=O)[C@@H]1CCCN1C(=O)[C@H](CO)NC(=O)[C@H](CCCNC(=N)N)NC(=O)[C@@H](NC(=O)[C@H](CCC(N)=O)NC(=O)CNC(=O)[C@H](C)N)[C@@H](C)O)C(=O)N[C@@H](C)C(N)=O [SEQ ID NO: 140] (H-AGQTRSPLA-NH2) | inactive | inactive |  |  |
| CC(=O)Nc1nnc(S(N)(=O)=O)s1 [acetazolamide] |  |  |  | MNTC at 72 h [3]: 10 to 1000 µM; cell growth (HeLa; 10^-4M): partial inhibition; cell growth (HeLa; 10^-5M): did not inhibit cell growth; MNTC at 72 h [4]: 10 to 1000 µM; cell growth (NIH3T3 cells; 10^-4M): partial inhibition; cell growth (NIH3T3 cells; 10^-5M): did not inhibit cell growth; difference between transformed cells growing in the presence or absence of the drug [5]: No difference |
| EDPPGEEDLPGEEDLPGEEDLPEVC [SEQ ID NO: 106] |  |  | reactive | concentration causing 50% inhibition (MAb M75; competition ELISA): 1 ng/mL |
| GEEDLPSEEDSPREEDPPGEEDLPGEC [SEQ ID NO: 105] |  |  | reactive | fold less active (than SEQ ID NOS: 104 and 106) (MAb M75; competition ELISA): 1000 x |
| GGSSGEDDPLGEEDLPSEEDSPC [SEQ ID NO: 104] |  |  | reactive | concentration causing 50% inhibition (MAb M75; competition ELISA): 1 ng/mL |
